The values that follow come from patent publication US9079902B2, “Heteroaryl sodium channel inhibitors” (AMGEN INC., priority 2011, dated 2015).

Series [1] deals with Nav 1.7 (Homo sapiens (Human), UniProt Q15858). The series can be described thus: Nav 1.7 in vitro assay (IonWorks Quattro population patch-clamp). The format is cell-based. The settings on record: 293 cells stably transfected with Nav 1.7; for inhibition at 4.9 µM: HEK293; for IC50: 26th pulse to -20 mV, 5 Hz. Here is the method: (§1) Nav 1.7 and Nav 1.5 In Vitro Assay
Sequence of Nav 1.7 (Q15858 whole entry): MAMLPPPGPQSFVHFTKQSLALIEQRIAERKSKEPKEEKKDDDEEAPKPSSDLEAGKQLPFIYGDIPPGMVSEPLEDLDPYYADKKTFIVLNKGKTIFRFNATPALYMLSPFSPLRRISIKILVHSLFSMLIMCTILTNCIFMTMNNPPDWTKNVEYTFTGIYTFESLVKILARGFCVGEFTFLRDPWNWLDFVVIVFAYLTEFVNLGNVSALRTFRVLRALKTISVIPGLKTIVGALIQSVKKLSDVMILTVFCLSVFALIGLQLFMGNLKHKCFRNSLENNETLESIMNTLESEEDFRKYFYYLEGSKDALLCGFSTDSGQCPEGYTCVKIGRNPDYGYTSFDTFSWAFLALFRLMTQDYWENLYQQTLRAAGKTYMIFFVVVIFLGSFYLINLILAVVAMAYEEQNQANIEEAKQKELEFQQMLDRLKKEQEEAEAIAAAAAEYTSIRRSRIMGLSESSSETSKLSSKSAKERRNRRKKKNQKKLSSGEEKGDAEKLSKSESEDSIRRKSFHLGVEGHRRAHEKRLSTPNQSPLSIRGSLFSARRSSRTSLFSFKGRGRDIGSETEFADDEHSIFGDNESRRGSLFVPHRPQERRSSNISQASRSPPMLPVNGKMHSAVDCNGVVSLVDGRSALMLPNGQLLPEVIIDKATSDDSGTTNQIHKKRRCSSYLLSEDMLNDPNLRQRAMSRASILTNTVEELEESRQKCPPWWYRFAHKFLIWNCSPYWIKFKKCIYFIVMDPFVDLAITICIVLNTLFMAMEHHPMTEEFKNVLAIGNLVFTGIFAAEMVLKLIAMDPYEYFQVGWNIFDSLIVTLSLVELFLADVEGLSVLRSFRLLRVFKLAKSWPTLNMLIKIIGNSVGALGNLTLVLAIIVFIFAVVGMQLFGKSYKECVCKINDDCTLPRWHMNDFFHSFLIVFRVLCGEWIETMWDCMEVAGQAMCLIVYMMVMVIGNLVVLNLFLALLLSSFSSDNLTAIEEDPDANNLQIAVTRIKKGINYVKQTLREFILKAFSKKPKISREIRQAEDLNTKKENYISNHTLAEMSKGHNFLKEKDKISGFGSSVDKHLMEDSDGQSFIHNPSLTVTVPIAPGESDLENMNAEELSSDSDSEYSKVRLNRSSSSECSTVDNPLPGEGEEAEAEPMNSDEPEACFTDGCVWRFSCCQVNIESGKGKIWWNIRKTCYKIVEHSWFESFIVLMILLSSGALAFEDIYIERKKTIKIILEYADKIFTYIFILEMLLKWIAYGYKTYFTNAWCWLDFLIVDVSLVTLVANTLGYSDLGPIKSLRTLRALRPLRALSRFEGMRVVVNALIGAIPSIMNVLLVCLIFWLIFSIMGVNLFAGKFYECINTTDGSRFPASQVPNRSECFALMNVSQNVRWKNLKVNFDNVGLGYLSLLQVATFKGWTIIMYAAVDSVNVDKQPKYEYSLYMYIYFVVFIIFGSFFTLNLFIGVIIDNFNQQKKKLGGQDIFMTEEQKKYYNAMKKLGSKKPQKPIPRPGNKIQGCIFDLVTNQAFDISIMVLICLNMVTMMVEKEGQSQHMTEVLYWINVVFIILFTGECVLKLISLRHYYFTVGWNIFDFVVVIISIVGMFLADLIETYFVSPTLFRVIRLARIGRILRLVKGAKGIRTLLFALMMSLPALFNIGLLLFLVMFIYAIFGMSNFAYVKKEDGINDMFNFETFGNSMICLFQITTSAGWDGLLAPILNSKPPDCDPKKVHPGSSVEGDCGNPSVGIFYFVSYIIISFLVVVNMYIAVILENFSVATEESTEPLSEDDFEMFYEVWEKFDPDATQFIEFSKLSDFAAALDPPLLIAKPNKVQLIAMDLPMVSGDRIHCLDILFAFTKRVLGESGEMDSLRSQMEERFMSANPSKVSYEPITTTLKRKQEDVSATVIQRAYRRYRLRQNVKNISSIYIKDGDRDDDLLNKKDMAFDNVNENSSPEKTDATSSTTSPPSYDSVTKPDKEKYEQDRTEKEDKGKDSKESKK
(§2) 293 cells stably transfected with either Nav 1.7 or with Nav 1.5 were recorded in population patch-clamp mode with the IonWorks® Quattro automated electrophysiology system in accordance with the manufacturer's specifications (Molecular Devices, LLC, Sunnyvale, Calif.). Sodium channel currents were measured in response to a train of depolarizations that induced successively greater inactivation.
(§3) Cells were held at −110 mV for three seconds (Nav 1.7) or half a second (Nav 1.5) from a holding voltage of −15 mV, then put through a series of 26 pulses of 150 msec duration to −20 mV at a frequency of 5 Hz. Cells were then left unclamped for a period of 3 to 8 minutes while a single concentration of test compound was added. Cells were then reclamped and put through the same voltage protocol. Current at the end of the 26th pulse to −20 mV was subtracted from the peak current evoked by the 26th pulse to −20 mV to correct for leak current. Percent block was calculated for each concentration in duplicate, and IC50 curves were fitted to percent block as a function of concentration.

Series [2] concerns the target Nav 1.5 (Homo sapiens (Human), UniProt Q14524). The experiment in a line: Nav 1.5 in vitro assay (IonWorks Quattro population patch-clamp). The format is cell-based. Particulars: 293 cells stably transfected with Nav 1.5; 26th pulse to -20 mV, 5 Hz. As to the method:
as §1, §2, §3
For orientation: In patch-clamp work, channel activity is measured electrically.

Sequence of Nav 1.5 (Q14524 whole entry): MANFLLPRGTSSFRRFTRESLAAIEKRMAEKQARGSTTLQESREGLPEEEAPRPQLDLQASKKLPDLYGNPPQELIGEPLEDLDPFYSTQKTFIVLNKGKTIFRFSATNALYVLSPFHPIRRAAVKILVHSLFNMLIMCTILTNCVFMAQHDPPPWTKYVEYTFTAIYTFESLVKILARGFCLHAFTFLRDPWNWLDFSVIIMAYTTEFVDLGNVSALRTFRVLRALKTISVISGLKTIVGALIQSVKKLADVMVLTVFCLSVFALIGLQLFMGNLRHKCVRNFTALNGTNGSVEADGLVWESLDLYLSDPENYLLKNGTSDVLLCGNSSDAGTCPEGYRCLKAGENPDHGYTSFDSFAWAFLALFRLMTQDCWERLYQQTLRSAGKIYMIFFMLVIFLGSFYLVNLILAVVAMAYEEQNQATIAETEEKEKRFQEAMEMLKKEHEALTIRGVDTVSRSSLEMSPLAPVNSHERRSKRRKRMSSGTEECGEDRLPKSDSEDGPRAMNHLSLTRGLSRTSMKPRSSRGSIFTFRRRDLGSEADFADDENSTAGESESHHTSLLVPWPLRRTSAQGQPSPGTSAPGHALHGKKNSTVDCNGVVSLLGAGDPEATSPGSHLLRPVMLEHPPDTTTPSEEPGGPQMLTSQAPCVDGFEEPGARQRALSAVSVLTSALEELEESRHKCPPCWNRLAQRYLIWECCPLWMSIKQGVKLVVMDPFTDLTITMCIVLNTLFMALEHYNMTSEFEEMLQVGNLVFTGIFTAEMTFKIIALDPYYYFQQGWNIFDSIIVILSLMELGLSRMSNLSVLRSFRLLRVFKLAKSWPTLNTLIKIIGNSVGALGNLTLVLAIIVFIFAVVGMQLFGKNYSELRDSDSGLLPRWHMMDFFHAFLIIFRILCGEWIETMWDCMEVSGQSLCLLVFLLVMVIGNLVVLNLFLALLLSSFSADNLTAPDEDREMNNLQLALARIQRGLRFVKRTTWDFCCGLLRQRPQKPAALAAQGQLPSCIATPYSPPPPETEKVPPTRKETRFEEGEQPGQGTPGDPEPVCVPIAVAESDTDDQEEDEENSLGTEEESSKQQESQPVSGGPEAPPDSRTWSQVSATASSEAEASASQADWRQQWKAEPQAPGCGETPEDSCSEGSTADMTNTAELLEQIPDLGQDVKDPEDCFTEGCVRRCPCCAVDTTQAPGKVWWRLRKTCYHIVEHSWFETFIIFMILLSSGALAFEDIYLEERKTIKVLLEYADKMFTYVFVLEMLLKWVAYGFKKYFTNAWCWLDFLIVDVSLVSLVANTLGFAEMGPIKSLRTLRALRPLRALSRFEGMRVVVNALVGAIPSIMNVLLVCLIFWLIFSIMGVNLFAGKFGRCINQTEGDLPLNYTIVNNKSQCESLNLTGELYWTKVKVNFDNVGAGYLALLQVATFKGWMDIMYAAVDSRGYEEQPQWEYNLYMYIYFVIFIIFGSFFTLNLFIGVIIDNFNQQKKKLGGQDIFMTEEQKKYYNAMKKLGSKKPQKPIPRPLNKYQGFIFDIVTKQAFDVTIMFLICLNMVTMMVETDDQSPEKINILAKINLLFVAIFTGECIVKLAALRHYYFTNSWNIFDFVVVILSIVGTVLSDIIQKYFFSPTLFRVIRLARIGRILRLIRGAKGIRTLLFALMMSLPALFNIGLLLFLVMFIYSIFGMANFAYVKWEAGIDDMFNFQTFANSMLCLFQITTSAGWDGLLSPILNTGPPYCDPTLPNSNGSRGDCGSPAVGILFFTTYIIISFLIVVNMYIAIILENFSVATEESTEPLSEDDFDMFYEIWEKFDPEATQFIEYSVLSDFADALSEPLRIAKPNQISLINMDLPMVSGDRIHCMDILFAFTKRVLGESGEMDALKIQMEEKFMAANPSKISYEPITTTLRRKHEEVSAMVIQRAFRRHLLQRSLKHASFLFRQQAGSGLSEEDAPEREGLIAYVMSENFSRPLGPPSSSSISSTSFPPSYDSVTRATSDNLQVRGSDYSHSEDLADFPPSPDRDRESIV

The inhibition is the percentage by which the read-out fell short of the control. A low value points to little suppression. As a reminder, the IC50 is the concentration that gives 50% inhibition. Low readings indicate greater potency in that assay, high ones weaker potency in that assay. `Cn1cc(-c2cc3ccccc3o2)c2ccc(S(=O)(=O)Nc3ncns3)cc21` [Example 59, 3-(Benzofuran-2-Yl)-1-Methyl-N-(1,2,4-Thiadiazol-5-Yl)-1H-Indole-6-Sulfonamide]: testing at 4.9 µM in series [1] gave an inhibition of 36.2%. Besides, the IC50 in series [2] is over 10000 nM.
`COc1ccc(-c2cn(C)c3cc(S(=O)(=O)Nc4ncns4)ccc23)cc1C#N` [Example 60, 3-(3-Cyano-4-Methoxyphenyl)-1-Methyl-N-(1,2,4-Thiadiazol-5-Yl)-1H-Indole-6-Sulfonamide]: the inhibition at 4.9 µM in series [1] was 24.7%. The same compound came in with an IC50 in series [2] of over 10000 nM.
On the same counts, the results for `COc1ccc(-c2cn(C)c3cc(S(=O)(=O)Nc4ncns4)ccc23)cn1` [Example 61, 3-(6-Methoxypyridin-3-Yl)-1-Methyl-N-(1,2,4-Thiadiazol-5-Yl)-1H-Indole-6-Sulfonamide] are 37.2% and over 10000 nM.
On to `Cn1nccc1-c1cc(Cl)ccc1-n1cnc2cc(S(=O)(=O)Nc3ncns3)ccc21` [Example 62, 1-(4-Chloro-2-(1-Methyl-1H-Pyrazol-5-Yl)Phenyl)-N-(1,2,4-Thiadiazol-5-Yl)-1H-Benzo[D]Imidazole-5-Sulfonamide], for which the results for the IC50 in series [1] and in series [2] were 2680 nM and over 10000 nM, respectively.
As to `Cn1nccc1-c1cc(C(F)(F)F)ccc1-n1cnc2cc(S(=O)(=O)Nc3ncns3)ccc21` [Example 63, 1-(2-(1-Methyl-1H-Pyrazol-5-Yl)-4-(Trifluoromethyl)Phenyl)-N-(1,2,4-Thiadiazol-5-Yl)-1H-Benzo[D]Imidazole-5-Sulfonamide], the figures for the IC50 in series [1] and in series [2] were 1130 nM and over 10000 nM, respectively.
Consider `Cn1cc(-c2ccc(C(F)(F)F)cc2C2=CCNCC2)c2ccc(S(=O)(=O)Nc3nccs3)cc21` [Example 65, 1-Methyl-3-(2-(1,2,3,6-Tetrahydropyridin-4-Yl)-4-(Trifluoromethyl)Phenyl)-N-(Thiazol-2-Yl)-1H-Indole-6-Sulfonamide 2,2,2-Trifluoroacetate], for which the IC50 is 269 nM in series [1] and over 10000 nM in series [2].
On the same counts, the results for `Cn1cc(-c2ccc(C(F)(F)F)cc2C2=CCNCC2)c2ccc(S(=O)(=O)Nc3cscn3)cc21` [Example 66, 1-Methyl-3-(2-(1,2,3,6-Tetrahydropyridin-4-Yl)-4-(Trifluoromethyl)Phenyl)-N-(Thiazol-4-Yl)-1H-Indole-6-Sulfonamide] are 1410 nM and over 10000 nM.
